# According to PubChem BioAssay (NCI):
#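 1) Cells in 96-well plates. 2) Compound, 48 h, 5 concentrations. 3) Linear interpolation between surrounding doses. 4) Unreached endpoint = highest concentration. Here, GI50 denotes the concentration required for 50% inhibition of growth. TGI denotes the concentration required for complete inhibition of growth.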
# Columns and labels:
# Experiment in all cases: growth of human tumour cells (NCI), 48 h
# 786-0 renal = system: 786-0 renal
# A498 renal = system: A498 renal
# A549 NSCLC = system: A549 NSCLC
# ACHN renal = system: ACHN renal
# BT-549 breast = system: BT-549 breast
# CAKI-1 renal = system: CAKI-1 renal
# CCRF-CEM leukemia = system: CCRF-CEM leukemia
# COLO 205 colon = system: COLO 205 colon
# DU-145 prostate = system: DU-145 prostate
# EKVX NSCLC = system: EKVX NSCLC
# HCC-2998 colon = system: HCC-2998 colon
# HCT-116 colon = system: HCT-116 colon
# HCT-15 colon = system: HCT-15 colon
# HL-60(TB) leukemia = system: HL-60(TB) leukemia
# HOP-62 NSCLC = system: HOP-62 NSCLC
# HOP-92 NSCLC = system: HOP-92 NSCLC
# HS 578T breast = system: HS 578T breast
# HT29 colon = system: HT29 colon
# IGROV1 ovarian = system: IGROV1 ovarian
# K-562 leukemia = system: K-562 leukemia
# KM12 colon = system: KM12 colon
# LOX IMVI melanoma = system: LOX IMVI melanoma
# M14 melanoma = system: M14 melanoma
# MALME-3M melanoma = system: MALME-3M melanoma
# MCF7 breast = system: MCF7 breast
# MDA-MB-231 breast = system: MDA-MB-231 breast
# MDA-MB-435 = system: MDA-MB-435
# MDA-MB-468 breast = system: MDA-MB-468 breast
# MOLT-4 leukemia = system: MOLT-4 leukemia
# NCI-H226 lung = system: NCI-H226 lung
# NCI-H23 lung = system: NCI-H23 lung
# NCI-H460 lung = system: NCI-H460 lung
# NCI-H522 lung = system: NCI-H522 lung
# NCI/ADR-RES ovarian = system: NCI/ADR-RES ovarian
# OVCAR-3 ovarian = system: OVCAR-3 ovarian
# OVCAR-4 ovarian = system: OVCAR-4 ovarian
# OVCAR-5 ovarian = system: OVCAR-5 ovarian
# OVCAR-8 ovarian = system: OVCAR-8 ovarian
# PC-3 prostate = system: PC-3 prostate
# RPMI-8226 leukemia = system: RPMI-8226 leukemia
# RXF 393 renal = system: RXF 393 renal
# SF-268 CNS = system: SF-268 CNS
# SF-295 CNS = system: SF-295 CNS
# SF-539 CNS = system: SF-539 CNS
# SK-MEL-2 melanoma = system: SK-MEL-2 melanoma
# SK-MEL-28 melanoma = system: SK-MEL-28 melanoma
# SK-MEL-5 melanoma = system: SK-MEL-5 melanoma
# SK-OV-3 ovarian = system: SK-OV-3 ovarian
# SN12C renal = system: SN12C renal
# SNB-19 CNS = system: SNB-19 CNS
# SNB-75 CNS = system: SNB-75 CNS
# SW-620 colon = system: SW-620 colon
# T-47D breast = system: T-47D breast
# TK-10 renal = system: TK-10 renal
# U251 CNS = system: U251 CNS
# UACC-257 melanoma = system: UACC-257 melanoma
# UACC-62 melanoma = system: UACC-62 melanoma
# UO-31 renal = system: UO-31 renal
smiles,measurement,setting,value
COc1ccc2c(c1)c(/C=N/Nc1ccc3ccccc3n1)cn2C,GI50,786-0 renal,15.3 µM
same,TGI,786-0 renal,31.6 µM
same,GI50,A498 renal,17.4 µM
same,TGI,A498 renal,33 µM
same,GI50,A549 NSCLC,9.48 µM
same,TGI,A549 NSCLC,28.7 µM
same,GI50,ACHN renal,7.38 µM
same,TGI,ACHN renal,21.4 µM
same,GI50,BT-549 breast,15.2 µM
same,TGI,BT-549 breast,30.2 µM
same,GI50,CAKI-1 renal,5.95 µM
same,TGI,CAKI-1 renal,21.3 µM
same,GI50,CCRF-CEM leukemia,5.52 µM
same,TGI,CCRF-CEM leukemia,86.7 µM
same,GI50,COLO 205 colon,15.9 µM
same,TGI,COLO 205 colon,39.2 µM
same,GI50,DU-145 prostate,12.3 µM
same,TGI,DU-145 prostate,25.5 µM
same,GI50,EKVX NSCLC,2.3 µM
same,TGI,EKVX NSCLC,19.4 µM
same,GI50,HCC-2998 colon,3.69 µM
same,TGI,HCC-2998 colon,15.4 µM
same,GI50,HCT-116 colon,8.18 µM
same,TGI,HCT-116 colon,26.5 µM
same,GI50,HCT-15 colon,3.4 µM
same,TGI,HCT-15 colon,13.3 µM
same,GI50,HL-60(TB) leukemia,10.4 µM
same,TGI,HL-60(TB) leukemia,41.7 µM
same,GI50,HOP-62 NSCLC,11.3 µM
same,TGI,HOP-62 NSCLC,44.9 µM
same,GI50,HOP-92 NSCLC,1.58 µM
same,TGI,HOP-92 NSCLC,11.5 µM
same,GI50,HS 578T breast,13 µM
same,TGI,HS 578T breast,33.3 µM
same,GI50,HT29 colon,5.46 µM
same,TGI,HT29 colon,23.1 µM
same,GI50,IGROV1 ovarian,10.8 µM
same,TGI,IGROV1 ovarian,26.5 µM
same,GI50,K-562 leukemia,3.36 µM
same,TGI,K-562 leukemia,> 100 µM
same,GI50,KM12 colon,5.47 µM
same,TGI,KM12 colon,21.9 µM
same,GI50,LOX IMVI melanoma,1.97 µM
same,TGI,LOX IMVI melanoma,5.27 µM
same,GI50,M14 melanoma,13.4 µM
same,TGI,M14 melanoma,30.1 µM
same,GI50,MALME-3M melanoma,18.6 µM
same,TGI,MALME-3M melanoma,38.7 µM
same,GI50,MCF7 breast,4.45 µM
same,TGI,MCF7 breast,24.2 µM
same,GI50,MDA-MB-231 breast,4.36 µM
same,TGI,MDA-MB-231 breast,19 µM
same,GI50,MDA-MB-435,8.41 µM
same,TGI,MDA-MB-435,23.1 µM
same,GI50,MDA-MB-468 breast,3.91 µM
same,TGI,MDA-MB-468 breast,16.1 µM
same,GI50,MOLT-4 leukemia,6.5 µM
same,TGI,MOLT-4 leukemia,39.1 µM
same,GI50,NCI-H226 lung,7.95 µM
same,TGI,NCI-H226 lung,29.6 µM
same,GI50,NCI-H23 lung,11.8 µM
same,TGI,NCI-H23 lung,28.4 µM
same,GI50,NCI-H460 lung,7.8 µM
same,TGI,NCI-H460 lung,30 µM
same,GI50,NCI-H522 lung,14 µM
same,TGI,NCI-H522 lung,39 µM
same,GI50,NCI/ADR-RES ovarian,10.4 µM
same,TGI,NCI/ADR-RES ovarian,30.3 µM
same,GI50,OVCAR-3 ovarian,13.9 µM
same,TGI,OVCAR-3 ovarian,31.4 µM
same,GI50,OVCAR-4 ovarian,13.2 µM
same,TGI,OVCAR-4 ovarian,33.3 µM
same,GI50,OVCAR-5 ovarian,11.9 µM
same,TGI,OVCAR-5 ovarian,24.7 µM
same,GI50,OVCAR-8 ovarian,14.7 µM
same,TGI,OVCAR-8 ovarian,35.7 µM
same,GI50,PC-3 prostate,8.25 µM
same,TGI,PC-3 prostate,23.9 µM
same,GI50,RPMI-8226 leukemia,7.83 µM
same,TGI,RPMI-8226 leukemia,42.9 µM
same,GI50,RXF 393 renal,5.03 µM
same,TGI,RXF 393 renal,19.1 µM
same,GI50,SF-268 CNS,14.3 µM
same,TGI,SF-268 CNS,31.3 µM
same,GI50,SF-295 CNS,11.2 µM
same,TGI,SF-295 CNS,24.4 µM
same,GI50,SF-539 CNS,10.3 µM
same,TGI,SF-539 CNS,22.2 µM
same,GI50,SK-MEL-2 melanoma,16.8 µM
same,TGI,SK-MEL-2 melanoma,35.1 µM
same,GI50,SK-MEL-28 melanoma,14.9 µM
same,TGI,SK-MEL-28 melanoma,30.3 µM
same,GI50,SK-MEL-5 melanoma,10.4 µM
same,TGI,SK-MEL-5 melanoma,22.7 µM
same,GI50,SK-OV-3 ovarian,16.3 µM
same,TGI,SK-OV-3 ovarian,36.5 µM
same,GI50,SN12C renal,7.61 µM
same,TGI,SN12C renal,22.5 µM
same,GI50,SNB-19 CNS,15.8 µM
same,TGI,SNB-19 CNS,32.4 µM
same,GI50,SNB-75 CNS,4.97 µM
same,TGI,SNB-75 CNS,22.2 µM
same,GI50,SW-620 colon,7.46 µM
same,TGI,SW-620 colon,35.2 µM
same,GI50,T-47D breast,8.62 µM
same,TGI,T-47D breast,36.5 µM
same,GI50,TK-10 renal,22.5 µM
same,TGI,TK-10 renal,39 µM
same,GI50,U251 CNS,13.3 µM
same,TGI,U251 CNS,32.9 µM
same,GI50,UACC-257 melanoma,15.4 µM
same,TGI,UACC-257 melanoma,30.2 µM
same,GI50,UACC-62 melanoma,12.7 µM
same,TGI,UACC-62 melanoma,26.8 µM
same,GI50,UO-31 renal,1.68 µM
same,TGI,UO-31 renal,13.4 µM
